Experimental data from patent publication US20260078119A1, “DEGRADER COMPOUNDS AND USES THEREOF” (Bristol-Myers Squibb Company, priority 2024, published 2026).

Molecular target: T1, FAK (Homo sapiens, UniProt Q05397)
T1 construct: homozygous knock-in of a HiBiT tag (Promega Corporation, Madison, WI) to the C-terminus of the FAK gene in its natural genomic locus; endogenous in cells; host or cells: JHH-4-FAK-HiBiT clone d01 (CRISPR-Cas9 knock-in at the endogenous locus)
Experiment: FAK-HiBiT Degradation Assay
Type: cell-based
Conditions: for DC50: JHH-4-FAK-HiBiT clone d01 cells, two hours incubation, 10-point dose response, 3-fold dilution starting at 1 μM, Nano-Glo HiBiT luminescence, read-out: FAK HiBiT EC50; for FAK HiBiT Ymin: lower limit of the four parameter fit (value A), Ymax derived using DMSO control, JHH-4-FAK-HiBiT cells, two hours
From the text: To generate JHH-4-FAK-HiBiT cells for the FAK degradation assay, JHH-4 cells (Japanese Collection of Research Biosources Cell Bank, Japan) were transfected with ribonucleoprotein reagents to introduce, by CRISPR-Cas9 editing, the homozygous knock-in of a HiBiT tag (Promega Corporation, Madison, WI) to the C-terminus of the FAK gene in its natural genomic locus. Clonal cell populations were established by expanding single cells after CRISPR-Cas9 editing, with a clonal cell line named JHH-4-FAK-HiBiT clone d01 confirmed by next generation DNA sequencing to contain the expected HiBiT edited FAK gene and was selected for FAK degradation screening. Cells were selected and maintained in complete DMEM media (DMEM, 10% Heat Inactivated FBS, and Non-Essential Amino Acids at 37° C. and 5% CO2). Cells were passaged every 3-4 days by reseeding 0.5×10^6 cells in a T75 flask.
Cells were dispensed into 384-well white plates (Corning #3570, NY) that were pre-spotted with compounds using an acoustic dispenser (Echo acoustic transfer system, Beckman Coulter Life Sciences, Carlsbad, CA) as a 10-point dose response curve with a 3-fold dilution starting at 1 μM and including a DMSO control. Twenty-five microliters of media containing 2000 JHH-4-FAK-HiBiT Clone d01 cells was dispensed per well. Assay plates were incubated at 37° C. with 5% CO2 for two hours. After incubation, 25 μL of Nano-Glo HiBiT Lytic Reagent Working Solution (Promega Corporation, Madison, WI) was added to each well and incubated at room temperature for 10 minutes protected from light. After 10 minutes, luminescence was read on a PHERAstar luminometer (BMG Labtech, Cary, NC).
To determine the half-maximal effective concentration (EC50) values for FAK-HiBIT degradation, a four parameter logistic model was used: (Sigmoidal Dose-Response Model)(FIT=(A+((B−A)/1+((C/x)^D)))) where C is the inflection point (EC50), D is the Hill slope, and A and B are the low and high limits of the fit respectively). The lower limit of the fit (value A) is referred to as Ymin. The maximum limit constraint, Ymax, was derived using DMSO control. The curves were processed and evaluated using Dotmatics Atlas (Insightful Science, LLC, Boston, MA).

T1 sequence (Q05397 whole entry): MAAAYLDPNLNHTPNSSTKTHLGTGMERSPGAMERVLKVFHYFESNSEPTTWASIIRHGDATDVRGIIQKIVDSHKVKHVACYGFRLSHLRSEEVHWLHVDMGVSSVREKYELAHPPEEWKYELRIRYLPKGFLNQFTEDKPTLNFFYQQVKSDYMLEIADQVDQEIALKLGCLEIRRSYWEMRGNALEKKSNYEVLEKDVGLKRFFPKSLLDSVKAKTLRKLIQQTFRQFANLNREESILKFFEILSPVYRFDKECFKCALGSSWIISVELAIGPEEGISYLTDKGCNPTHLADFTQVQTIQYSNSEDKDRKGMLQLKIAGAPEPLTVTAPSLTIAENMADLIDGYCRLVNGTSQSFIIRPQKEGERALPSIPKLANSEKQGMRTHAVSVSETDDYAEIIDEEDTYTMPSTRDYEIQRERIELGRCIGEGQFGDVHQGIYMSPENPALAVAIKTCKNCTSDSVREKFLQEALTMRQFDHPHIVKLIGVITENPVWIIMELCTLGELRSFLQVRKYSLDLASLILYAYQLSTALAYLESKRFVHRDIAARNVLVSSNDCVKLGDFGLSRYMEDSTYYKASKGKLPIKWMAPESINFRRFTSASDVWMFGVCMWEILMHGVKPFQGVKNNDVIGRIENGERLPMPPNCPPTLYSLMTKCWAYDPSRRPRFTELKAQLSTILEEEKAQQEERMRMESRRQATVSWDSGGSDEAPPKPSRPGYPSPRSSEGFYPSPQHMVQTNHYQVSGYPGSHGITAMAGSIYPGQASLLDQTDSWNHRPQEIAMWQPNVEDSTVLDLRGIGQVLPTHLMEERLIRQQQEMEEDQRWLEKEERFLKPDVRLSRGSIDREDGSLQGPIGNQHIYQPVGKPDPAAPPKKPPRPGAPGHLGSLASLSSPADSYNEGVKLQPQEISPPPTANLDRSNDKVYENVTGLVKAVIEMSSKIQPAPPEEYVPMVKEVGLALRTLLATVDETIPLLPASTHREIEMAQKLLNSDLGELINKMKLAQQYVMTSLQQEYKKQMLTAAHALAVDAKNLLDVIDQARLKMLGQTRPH

DC50 [nM]	FAK HiBiT Ymin	SMILES
9	53	O=C1CC[C@H](N2Cc3cc(Cn4ncc5c(-c6ncc(Cl)cc6F)cc(N6CC[C@H](O)C6)nc54)ccc3C2=O)C(=O)N1 [Example 141, (3S)-3-(5-{[4-(5-chloro-3-fluoropyridin-2-yl)-6-[(3S)-3-hydroxypyrrolidin-1-yl]-1H-pyrazolo[3,4-b]pyridin-1-yl]methyl}-1-oxo-2,3-dihydro-1H-isoindol-2-yl)piperidine-2,6-dione]
29.2	11.17	N#Cc1ccc(-c2cc(N3CCC3)nc3c2cnn3Cc2ccc3c(n2)CN(C2CCC(=O)NC2=O)C3=O)c(Cl)c1 (centres unmarked) [Example 101, 4-[6-(azetidin-1-yl)-1-{[6-(2,6-dioxopiperidin-3-yl)-5-oxo-5H,6H,7H-pyrrolo[3,4-b]pyridin-2-yl]methyl}-1H-pyrazolo[3,4-b]pyridin-4-yl]-3-chlorobenzonitrile]
30.5	13.98	CC(C)Nc1cc(-c2ncc(C#N)cc2Cl)c2cnn(Cc3ccc4c(c3)CN(C3CCC(=O)NC3=O)C4=O)c2n1 (centres unmarked) [Example 103, 5-chloro-6-(1-{[2-(2,6-dioxopiperidin-3-yl)-1-oxo-2,3-dihydro-1H-isoindol-5-yl]methyl}-6-[(propan-2-yl)amino]-1H-pyrazolo[3,4-b]pyridin-4-yl)pyridine-3-carbonitrile]
46.7	18.51	Cc1cccnc1-c1cc(N2CC(F)C2)nc2c1cnn2Cc1ccc2c(c1)CN(C1CCC(=O)NC1=O)C2=O (centres unmarked) [Example 112, 3-(5-{[6-(3-fluoroazetidin-1-yl)-4-(3-methylpyridin-2-yl)-1H-pyrazolo[3,4-b]pyridin-1-yl]methyl}-1-oxo-2,3-dihydro-1H-isoindol-2-yl)piperidine-2,6-dione]
14.1	26.48	CC(C)Nc1cc(-c2ccc(C#N)cc2F)c2cnn(Cc3ccc4c(c3)CN(C3CCC(=O)NC3=O)C4=O)c2n1 (centres unmarked) [Example 92, 4-(1-{[2-(2,6-dioxopiperidin-3-yl)-1-oxo-2,3-dihydro-1H-isoindol-5-yl]methyl}-6-[(propan-2-yl)amino]-1H-pyrazolo[3,4-b]pyridin-4-yl)-3-fluorobenzonitrile]
73.7	25.54	CC(C)Nc1cc(-c2ncccc2Cl)c2cnn(Cc3ccc4c(c3)CN(C3CCC(=O)NC3=O)C4=O)c2n1 (centres unmarked) [Example 117, 3-(5-{[4-(3-chloropyridin-2-yl)-6-[(propan-2-yl)amino]-1H-pyrazolo[3,4-b]pyridin-1-yl]methyl}-1-oxo-2,3-dihydro-1H-isoindol-2-yl)piperidine-2,6-dione]
79.6	12.49	N#Cc1ccc(-c2cc(N3CCC3)nc3c2cnn3Cc2cnc3c(c2)CN(C2CCC(=O)NC2=O)C3=O)c(Cl)c1 (centres unmarked) [Example 118, 4-[6-(azetidin-1-yl)-1-{[6-(2,6-dioxopiperidin-3-yl)-7-oxo-5H,6H,7H-pyrrolo[3,4-b]pyridin-3-yl]methyl}-1H-pyrazolo[3,4-b]pyridin-4-yl]-3-chlorobenzonitrile]
3.92	12.88	N#Cc1ccc(-c2cc(N3CCC3)nc3c2cnn3Cc2ccc3c(c2)CN(C2CCC(=O)NC2=O)C3=O)c(F)c1 (centres unmarked) [Example 62, 4-[6-(azetidin-1-yl)-1-{[2-(2,6-dioxopiperidin-3-yl)-1-oxo-2,3-dihydro-1H-isoindol-5-yl]methyl}-1H-pyrazolo[3,4-b]pyridin-4-yl]-3-fluorobenzonitrile]
3.57	9.10	Cc1nn(Cc2ccc3c(c2)CN(C2CCC(=O)NC2=O)C3=O)c2nc(N3CCC3)cc(-c3ccc(C#N)cc3Cl)c12 (centres unmarked) [Example 60, 4-[6-(azetidin-1-yl)-1-{[2-(2,6-dioxopiperidin-3-yl)-1-oxo-2,3-dihydro-1H-isoindol-5-yl]methyl}-3-methyl-1H-pyrazolo[3,4-b]pyridin-4-yl]-3-chlorobenzonitrile]
124	43.76	CC(C)(O)c1ccc(Cl)c(-c2cc(N3CCC3)nc3c2cnn3Cc2ccc3c(c2)CN(C2CCC(=O)NC2=O)C3=O)c1 (centres unmarked) [Example 124, 3-(5-{[6-(azetidin-1-yl)-4-[2-chloro-5-(2-hydroxypropan-2-yl)phenyl]-1H-pyrazolo[3,4-b]pyridin-1-yl]methyl}-1-oxo-2,3-dihydro-1H-isoindol-2-yl)piperidine-2,6-dione]
5.19	15.10	CC(C)Nc1cc(-c2ccc(C#N)cc2Cl)c2cnn(Cc3ccc4c(c3)CN(C3CCC(=O)NC3=O)C4=O)c2n1 (centres unmarked) [Example 68, 3-chloro-4-(1-{[2-(2,6-dioxopiperidin-3-yl)-1-oxo-2,3-dihydro-1H-isoindol-5-yl]methyl}-6-[(propan-2-yl)amino]-1H-pyrazolo[3,4-b]pyridin-4-yl)benzonitrile]
8.68	2.64	CN(C)c1nc(-c2ccc(C#N)cc2Cl)c2ccn(Cc3ccc4c(c3)CN(C3CCC(=O)NC3=O)C4=O)c2n1 (centres unmarked) [Example 27, 3-chloro-4-(2-(dimethylamino)-7-((2-(2,6-dioxopiperidin-3-yl)-1-oxoisoindolin-5-yl)methyl)-7H-pyrrolo[2,3-d]pyrimidin-4-yl)benzonitrile]
13	10.98	O=C1CCC(N2Cc3cc(Cn4ncc5c(-c6ncccc6Cl)cc(N6CCC6)nc54)ccc3C2=O)C(=O)N1 (centres unmarked) [Example 88, 3-(5-{[6-(azetidin-1-yl)-4-(3-chloropyridin-2-yl)-1H-pyrazolo[3,4-b]pyridin-1-yl]methyl}-1-oxo-2,3-dihydro-1H-isoindol-2-yl)piperidine-2,6-dione]
67.2	34.23	CC(C)Nc1cc(-c2ccncc2Cl)c2cnn(Cc3ccc4c(c3)CN(C3CCC(=O)NC3=O)C4=O)c2n1 (centres unmarked) [Example 116, 3-(5-{[4-(3-chloropyridin-4-yl)-6-[(propan-2-yl)amino]-1H-pyrazolo[3,4-b]pyridin-1-yl]methyl}-1-oxo-2,3-dihydro-1H-isoindol-2-yl)piperidine-2,6-dione]
10.3	19.19	N#Cc1cnc(-c2cc(N3CCC3)nc3c2cnn3Cc2ccc3c(c2)CN(C2CCC(=O)NC2=O)C3=O)c(F)c1 (centres unmarked) [Example 84, 6-[6-(azetidin-1-yl)-1-{[2-(2,6-dioxopiperidin-3-yl)-1-oxo-2,3-dihydro-1H-isoindol-5-yl]methyl}-1H-pyrazolo[3,4-b]pyridin-4-yl]-5-fluoropyridine-3-carbonitrile]
3.43	7.90	N#Cc1ccc(-c2cc(N3CCC3)nc3c2cnn3Cc2ccc3c(c2)CN(C2CCC(=O)NC2=O)C3=O)c(Cl)c1 (centres unmarked) [Example 58, 4-[6-(azetidin-1-yl)-1-{[2-(2,6-dioxopiperidin-3-yl)-1-oxo-2,3-dihydro-1H-isoindol-5-yl]methyl}-1H-pyrazolo[3,4-b]pyridin-4-yl]-3-chlorobenzonitrile]
98.1	74.73	O=C1CCC(N2Cc3cc(Cn4ncc5c(-c6ccc(C7(O)CCOCC7)cn6)cc(N6CC(F)C6)nc54)ccc3C2=O)C(=O)N1 (centres unmarked) [Example 122, 3-(5-{[6-(3-fluoroazetidin-1-yl)-4-[5-(4-hydroxyoxan-4-yl)pyridin-2-yl]-1H-pyrazolo[3,4-b]pyridin-1-yl]methyl}-1-oxo-2,3-dihydro-1H-isoindol-2-yl)piperidine-2,6-dione]
≥ 1000	93.99	Cc1ncccc1-c1cc(N2CC(F)C2)nc2c1cnn2Cc1ccc2c(c1)CN(C1CCC(=O)NC1=O)C2=O (centres unmarked) [Example 139, 3-(5-{[6-(3-fluoroazetidin-1-yl)-4-(2-methylpyridin-3-yl)-1H-pyrazolo[3,4-b]pyridin-1-yl]methyl}-1-oxo-2,3-dihydro-1H-isoindol-2-yl)piperidine-2,6-dione]

SMILES	DC50 [nM]	FAK HiBiT Ymin
CC(C)Nc1cc(-c2ncc(C#N)cc2F)c2cnn(Cc3ccc4c(c3)CN(C3CCC(=O)NC3=O)C4=O)c2n1 (centres unmarked) [Example 137, 6-(1-{[2-(2,6-dioxopiperidin-3-yl)-1-oxo-2,3-dihydro-1H-isoindol-5-yl]methyl}-6-[(propan-2-yl)amino]-1H-pyrazolo[3,4-b]pyridin-4-yl)-5-fluoropyridine-3-carbonitrile]	≥ 1000	81.91
